Laboratory results published in patent US20100099559A1, “Method for protecting soybeans from being infected by fungi” (BASF SE, priority 2007, published 2010).

Test system: Cercospora sojina
Assay: Activity against Cercospora sojina, microtiter plate test
Assay type: cell-based
Conditions: single active, absorption at 405 nm on day 7 after inoculation, 18° C.
Protocol: The expected efficacies of active compound combinations were determined using Colby's formula (Colby, S. R. “Calculating synergistic and antagonistic responses of herbicide combinations”, Weeds, 15, pp. 20-22, 1967) and compared with the observed efficacies. E=x+y−x·y/100 Colby's formula • E expected efficacy, expressed in % of the untreated control, when using the mixture of the active compounds A and B at the concentrations a and b • x efficacy, expressed in % of the untreated control, when using the active compound A at the concentration a • y efficacy, expressed in % of the untreated control, when using the active compound B at the concentration b A solution containing 10 mg a.i. per 1 ml dimethyl sulfoxide is prepared. The stock solution is pipetted onto a microtiter plate (MTP) and diluted with water. In a second step a spore suspension of Cercospora sojina (containing a biomalt-based aqueous nutrient medium) was given to the stated active compound concentration. The plates were placed in a water vapor-saturated chamber at temperatures of 18° C. Using an absorption photometer, the MTPs were measured at 405 nm on day 7 after the inoculation. The measured parameters were compared to the growth of the active compound-free control variant and the fungus- and active compound-free blank value to determine the relative growth in % of the pathogens in the individual active compounds.

Row | SMILES | Observed activity (% infection) (concentration 0.063 ppm) | Observed activity (% infection) (concentration 0.016 ppm)
1 | Fc1ccc([C@]2(Cn3cncn3)O[C@H]2c2ccccc2Cl)cc1 (racemic) [epoxiconazole, reference compound] | 0% | 
2 | Cn1cc(C(=O)Nc2ccccc2[C@@H]2C[C@H]2C2CC2)c(C(F)F)n1 [Compound (Ia), N-(trans-2-bicycloprop-2-ylphenyl)-3-difluoromethyl-1-methyl-1H-pyrazole-4-carboxamide] | 31% | 0%
